Values quoted from earlier work, collected in patent US20170333338A1, “SUSTAINED AND REVERSIBLE ORAL DRUG DELIVERY SYSTEMS” (The Children's Medical Center Corporation, priority 2014, published 2017).

highest pKa of the phosphate groups: 10.18
Compound: NCCC(O)(P(=O)(O)O)P(=O)(O)O [Pamidronate]
